The values that follow come from ChEMBL document CHEMBL4414607, “Protein Stability Effects in Aggregate-Based Enzyme Inhibition” (J Med Chem, 2019).

Test [1] deals with Bacteria. Put plainly: Binding affinity to bacterial Beta-lactamase TEM-1 M182T mutant assessed as change in melting temperature at 100-fold molar excess compound concentration relative to apo-enzymes by SYPRO Orange dye based differential scanning fluorimetry. (In general: Differential scanning fluorimetry follows unfolding on heating by fluorescence.)
In test [2] the test system is Bacteria. Put plainly: Binding affinity to bacterial Beta-lactamase TEM-1 M182T/G238S mutant assessed as change in melting temperature at 100-fold molar excess compound concentration relative to apo-enzymes by SYPRO Orange dye based differential scanning fluorimetry.
The target in test [3] is Beta-lactamase TEM (Bacteria) (UniProt P62593). Put plainly: Binding affinity to bacterial wild type Beta-lactamase TEM-1 assessed as change in melting temperature at 100-fold molar excess compound concentration relative to apo-enzymes by SYPRO Orange dye based differential scanning fluorimetry.
Sequence of Beta-lactamase TEM (Bacteria) (P62593 whole entry): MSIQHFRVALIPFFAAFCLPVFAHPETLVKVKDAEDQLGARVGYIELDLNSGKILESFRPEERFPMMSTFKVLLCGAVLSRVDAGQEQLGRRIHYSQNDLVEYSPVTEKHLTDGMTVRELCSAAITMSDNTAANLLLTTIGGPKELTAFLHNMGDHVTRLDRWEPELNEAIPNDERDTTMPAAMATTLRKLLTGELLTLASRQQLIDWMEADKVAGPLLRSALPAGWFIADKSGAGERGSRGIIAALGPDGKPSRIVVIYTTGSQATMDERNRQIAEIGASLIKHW
The test system of test [4] is Bacteria.
The test system of test [5] is Bacteria. Put plainly: Binding affinity to bacterial Beta-lactamase TEM-1 G238S mutant assessed as change in melting temperature at 100-fold molar excess compound concentration relative to apo-enzymes by SYPRO Orange dye based differential scanning fluorimetry.
For test [6], the system named is Bacteria. Kind of test: Binding affinity to bacterial Beta-lactamase TEM-1 D179G mutant assessed as change in melting temperature at 100-fold molar excess compound concentration relative to apo-enzymes by SYPRO Orange dye based differential scanning fluorimetry.

Consider `CO[C@@]1(NC(=O)[C@H](C(=O)O)c2ccc(O)cc2)C(=O)N2C(C(=O)O)=C(CSc3nnnn3C)CO[C@@H]21`, for which the ΔTm in test [1] was -4.1 °C; in test [2], -0.7 °C; in test [3], -4.5 °C; in test [4], -3.3 °C; in test [5], -1.9 °C; in test [6], 2.9 °C.

The term ΔTm denotes the shift of the melting midpoint relative to a reference.
